From patent publication US20150342853A1, “Topical Lightening Composition and Methods of Use Thereof” (Avon Products, Inc., priority 2014, published 2015)

Assay: in vitro test of lightening of synthetic melanin (absorbance at 405 nm)
Assay type: biochemical
Details: melanin absorbance at 405 nm relative to vehicle control, two weeks
Method: Fabiana imbricata extract (having between 15,000 and 30,000 units/g of glucose oxidase activity) was examined for its ability to lighten melanin in an in vitro test. A solution of synthetic melanin at a concentration of 0.025% in dimethyl sulfoxide was prepared. 1 ml was added to each well of a 24-well plate. A 1% stock solution of Fabiana imbricata extract was prepared in phosphate-buffered saline and diluted serially at a ratio of 1:2 yielding 0.5%, 0.25% and 0.125% solutions of Fabiana imbricata extract. Solutions of glucose were prepared similarly. 10 microliters of each concentration of Fabiana imbricata extract was added along with 10 microliters of glucose to 1 ml of the melanin solution in each well of the microplate. Each concentration was tested in triplicate. Three wells received the phosphate-buffered saline as vehicle control. Hydrogen peroxide at 0.3, 0.03 and 0.003% was added to 3 wells each as positive control. The microplate was incubated at room temperature and treatments described above were repeated for a total of ten times over two weeks. At the end of the incubation period, melanin absorbance was measured at 405 nm using a spectrophotometer. Results are summarized in the table below as percent of melanin absorbance relative to vehicle control. A lower absorbance indicates lightening of melanin.

OO [Example H2O2, Hydrogen peroxide]
% Relative Absorbance (0.003% H2O2 positive control): 87.5%
% Relative Absorbance (0.03% H2O2 positive control): 70.6%
% Relative Absorbance (0.3% H2O2 positive control): 30.6%
